Test results as given in patent publication US10899822B2, “Compositions comprising D-amino acid peptides and methods of production and use thereof for inhibiting autoantibodies” (The Board of Regents of the University of Oklahoma, priority 2013, dated 2021).
“Also recorded” adds a separate entry of the source. Marks after values point to notes of the source that are not given here. Square brackets hold non-standard residues; d marks the D form. Ends that are not written are not given here. Peptide text beside a SMILES is read from it.

Assays:
[1] = system: AT1R autoantibodies; assay: Binding of iodinated RID peptide to autoantibodies; details: iodine atom in the molecular structure
Method: While therapeutic methods of using the RID peptides have been envisioned above, the scope of the presently disclosed inventive concepts also includes diagnostic uses of the RID peptides as well. The studies shown in FIGS. 12 and 13 were conducted at high concentrations (>250 μg/ml), and these concentrations are too high for study of absorption and use as part of a direct assay of serum binding to autoantibodies.

[2] = system: AT1R activating autoantibodies; assay: Isolated rat cremaster artery contractility induced by serum of AT1R 2nd ECL peptide immunized rabbits; design: species or system rabbit; details: with ARB losartan
Excerpt: FIG. 4, Panel A illustrates the dose related contractile effect of serum from an AT1R 2nd ECL peptide immunized rabbit on an isolated rat cremaster artery. The in vitro contractile changes were expressed as % change (decrease) in diameter with the increasing dosage concentration (dilution). These effects are blocked by the selective angiotensin II receptor blocker (ARB) losartan.
There was a significant increase of in vitro cremaster contractility (p<0.01) in the post-immune state compared to the pre-immune values.
FIG. 5 illustrates the effect of in vitro incubation of the RID peptide with serum containing AT1R activating autoantibodies (rabbit) on cremaster artery contractility. […] The same response was observed when the serum was pre-incubated with the L-amino acid target peptide (FIG. 5, Panel B).
Data provided herein were obtained with immunized rabbit serum containing autoantibodies that will stimulate AT1R receptors transfected into CHO cells. […] A bioassay for Angiotensin II-like activity using an isolated perfused cremaster artery in vitro has also been developed.

[3] = rabbit, in vivo
[4] = system: β1AR-AAb; assay: Effective refractory period (ERP) in β1AR-immunized rabbits; format: in vivo, rabbit
Excerpt: FIG. 8 contains a flow chart depicting the protocol of the procedures performed in rabbits in a study to determine the effective refractory period (ERP) in atrial cells in rabbit-models with pre-immune, post-immune (β1AR-immunization), and post-immune plus β1AR-ECL2 RID peptide administration. The ERP inversely is one parameter of the susceptibility of the cardiac cells to induction of tachyarrhythmias.
(§1) The RID peptide was utilized in a study measuring the effective refractory period (ERP) in five New Zealand white rabbits. The procedures performed are outlined in the flow chart of FIG. 8. The ERP was measured during a pre-immune state and following immunization with β1AR ECL2 peptide to generate autoantibodies thereto, as described previously (Li et al. Am J Physiol Heart Circ Physiol. (2014) 306:H422-428). This was followed by administration of T4 (40 μg/kg), and an additive effect was observed on induced atrial tachyarrhythmias with the appearance of AF in a significant percentage of the T4 treated animals. […] In addition, the ERP in the rabbits was measured following administration of the β1AR-ECL2 RID peptide 90 minutes after T4.
FIG. 10 illustrates the mean ERP for an atrial catheter lead.

[5] = system: β1AR-AAb; assay: cAMP production in β1AR-CHO cells stimulated by post-immune sera; format: cell-based, rabbit
[6] = system: β1AR-AAb; assay: Heart rate and sustained arrhythmias in β1AR-AAb + T4 excess animals; format: in vivo, rabbit
Method: as §1

[7] = In vitro stability in synthetic gastric fluid (SGF, pepsin+HCL, pH 1.2) at 37° C., HPLC; format: in vitro ADME; details: pH 1.2, 37° C.
Method: FIG. 13 graphically illustrates an in vitro stability analysis of the native and RID peptides in synthetic gastric fluid (SGF, pepsin+HCL, pH 1.2) at 37° C., as measured by HPLC. This Figure indicates the rate of proteolysis of the AT1R-ECL2 L-amino acid peptide and the AT1R-ECL2 RID peptide under these conditions.
In FIG. 13, the AT1R-ECL2 L-amino acid peptide and the AT1R-ECL2 RID peptide were each separately incubated in artificial gastric juice (SGF, pepsin+HCL, pH 1.2) at 37° C., and proteolysis of the peptides was measured by HPLC.

[8] = In vitro stability in human serum at 37° C., HPLC; format: in vitro ADME

AT1R-ECL2 RID peptide has been iodinated: AT1R-ECL2 RID peptide directly iodinated; iodine atom in the structure blocked binding ([dQ][dS][dE][dY][dH][dF][dA]; also: directly iodinated, place not given here)
binding to autoantibodies [1]: blocked binding

CCCCc1nc(Cl)c(CO)n1Cc1ccc(-c2ccccc2-c2nn[nH]n2)cc1 [losartan]
contractile effect of immunized rabbit serum on isolated rat cremaster artery (% decrease in diameter) [2]: blocked

dcckpdnycr [β1AR-ECL2 RID peptide]
anti-RID antibodies by ELISA (immunogenicity) [3]: failed to demonstrate anti-RID antibodies | effect on ERP (msec), right atrial lead ([4]; post-immune + RID peptide IV, over 90 minutes): dramatic rise in ERP; also recorded: reverses the shortening of the ERP | effect on ERP ([4]; post-immune + T4 + RID peptide, 90 minutes after T4): reversed the β1AR-AAb effects but not the effect caused by T4 | sera-induced β1AR activation of cAMP production in β1AR-transfected cells ([5]; sera pre-incubated with RID peptide, P<0.01): effectively blocked | ability of post-immune sera to stimulate cAMP in β1AR-CHO cells ([5]; sera taken 90 after IV injection of 1 mg/Kg BW): marked reduction of the ability to stimulate cAMP | #sustained arrhythmias/#induction attempts ([6]; Post-immune + T4 + β1AR-RID): 6/20*^++ | Heart rate ([6]; Post-immune + T4 + β1AR-RID): 241 ± 35**^##+ beats/min | Sustained AF ([6]; Post-immune + T4 + β1AR-RID): 0/20 | Sustained AFL ([6]; Post-immune + T4 + β1AR-RID): 0/20 | Sustained AT ([6]; Post-immune + T4 + β1AR-RID): 1/20 | Sustained JT ([6]; Post-immune + T4 + β1AR-RID): 2/20 | Sustained ST ([6]; Post-immune + T4 + β1AR-RID): 3/20^+ | Sustained VT ([6]; Post-immune + T4 + β1AR-RID): 0/20

C[C@H](N)C(=O)N[C@@H](Cc1ccccc1)C(=O)N[C@@H](Cc1c[nH]cn1)C(=O)N[C@@H](Cc1ccc(O)cc1)C(=O)N[C@@H](CCC(=O)O)C(=O)N[C@@H](CO)C(=O)N[C@@H](CCC(N)=O)C(=O)O [AT1R-ECL2 L-amino acid peptide, AFHYESQ, reference compound] (H-AFHYESQ-OH; N-terminus and C-terminus assumed)
rate of proteolysis compared with the RID peptide [7]: proteolyzed at a much faster rate

N[C@@H](Cc1cc(I)c(Oc2cc(I)c(O)c(I)c2)c(I)c1)C(=O)O [T4, thyroxine, reference compound]
effect on ERP ([4]; post-immune + T4 (40 μg/kg), P<0.01): additive | #sustained arrhythmias/#induction attempts ([6]; Post-immune + T4): 20/20**^# | Heart rate ([6]; Post-immune + T4): 280 ± 56 beats/min | Sustained AF ([6]; Post-immune + T4): 2/20 | Sustained AFL ([6]; Post-immune + T4): 0/20 | Sustained AT ([6]; Post-immune + T4): 2/20 | Sustained JT ([6]; Post-immune + T4): 2/20 | Sustained ST ([6]; Post-immune + T4): 11/20** | Sustained VT ([6]; Post-immune + T4): 3/20

C[C@@H](NC(=O)[C@@H](Cc1ccccc1)NC(=O)[C@@H](Cc1c[nH]cn1)NC(=O)[C@@H](Cc1ccc(O)cc1)NC(=O)[C@@H](CCC(=O)O)NC(=O)[C@@H](CO)NC(=O)[C@H](N)CCC(N)=O)C(=O)O [AT1R-ECL2 RID peptide, qseyhfa] (H-[dQ][dS][dE][dY][dH][dF][dA]-OH; N-terminus and C-terminus assumed)
peptide remaining intact ([8]; 24 hours (data not shown)): 80% | integrity at two hours [8]: resistance | integrity at two hours ([8]; listed as AT2R-ECL2 RID peptide): remained intact | integrity for four hours ([7]; four hours): remained intact | remaining at 6 h ([7]; synthetic gastric fluid (SGF), six hours, read-out: peptide remaining): 60%
